The values that follow come from patent US20220186240A1, “FLAVONE 7-O-METHYLTRANSFERASE GENE AND USE FOR SAME” (Suntory Holdings Limited, priority 2019, published 2022).

Data set [1] in a line: Simulation of flavone C-glycoside (isoorientin, swertisin) copigment effect with malvin, absorption spectra. The format is physicochemical. As to conditions: for Absorption maximum of malvin solution with addition of flavone C-glycoside (λmax): flavone C-glycoside at 10-equivalent molar concentration, pH 5.0, malvin 0.5 mM. The protocol:
An anthocyanin (malvin) and flavone C-glycoside were prepared to simulate the copigment effect of the flavone C-glycoside on malvin. The malvin (malvidin 3,5-diglycoside) and flavone C-glycosides (isoorientin, swertisin) used in this experiment were purchased from Nacalai Tesque, Inc.
Each flavone C-glycoside (isoorientin or swertisin) was added to the malvin at 10-equivalent molar concentration in a buffering solution at pH 5.0, and the absorption spectra were measured. The malvin concentration was 0.5 mM.
Addition of the flavone C-glycoside increased the absorbance of the malvin solution, shifting the absorption maximum (λmax) toward the long wavelength end. The absorption maximum was shifted further toward the long wavelength end with addition of swertisin than with isoorientin.

The subject of data set [2] is DN134067 (CcFn-7OMT, flavone 7-O-methyltransferase). Put plainly: Enzyme activity measurement with crude protein solution extract from E. coli expressing DN134067, HPLC of reaction solution. The format is biochemical, oboushibana (Commelina communis var. hortensis). As to conditions: for Enzyme reaction synthesis product / peak detected in the enzyme reaction solution: compound as substrate; for Enzyme reaction synthesis product: 30° C., SAM, ND = no product peak; for peak detected in the enzyme reaction solution: HPLC. An excerpt:
With DN134067 as a candidate protein having activity of transferring a methyl group to the hydroxyl group at position 7 of flavone C-glycoside, and using pET15b (Novagen), an E. coli expression vector containing the full-length DN134067 (pET15b-DN134067) was constructed according to the manufacturer's recommended protocol.
Plasmid pET15b-DN134067 was introduced into E. coli BL21 using One Shot BL21(DE3) (Invitrogen), according to the manufacturer's recommended protocol, to obtain E. coli transformants. The E. coli were cultured using an Overnight Express Autoinduction System 1 (Novagen), according to the manufacturer's recommended protocol. The E. coli transformants were cultured at 37° C. (approximately 4 hours) with 2 ml of prepared culture solution, to an OD600 value of 0.5. The E. coli solution was added as a preculturing solution to 50 ml of culture solution, and main culturing was carried out for two nights at 16° C.
The E. coli solution cultured for two nights was centrifuged (3000 rpm, 4° C., 15 minutes), and the collected cells were suspended in sonic buffer (composition: 40 mM KPB (pH7.5), 1 mM dithiothreitol, 50 μM amidinophenylmethanesulfonyl fluoride hydrochloride, […], 2 mM MgCl2, 1 μM S-adenosylmethionine (SAM)). A 5 ml portion of sonic buffer was added for each 1 g of E. coli. The suspended E. coli cells were crushed by ultrasonic treatment and then centrifuged (15,000 rpm, 4° C., 10 minutes), and the supernatant was recovered. The supernatant was used as a crude protein solution extract from E. coli expressing DN134067. An Avanti HP-26XP (rotor: JA-2) (Beckman Coulter) was used for the centrifugation.
After mixing 8 μl of 1 mM isovitexin (dissolved in 50% aqueous acetonitrile containing 0.1% TFA), 20 μl of 10 mM SAM, 20 μl of 10 mM MgCl2 and 10 μl of 1 M KPB (pH 7.5) and adjusting to 58 μl with water, the mixture was kept at 30° C. for 10 minutes, and then 2 μl of the crude protein solution extract from DN134067-expressing E. coli was added and enzyme reaction was carried out (30 minutes at 30° C.). Next, 100 μl of stop buffer (aqueous 90% acetonitrile solution containing 0.1% TFA) was added to stop the enzyme reaction, and the enzyme reaction solution was analyzed by high-performance liquid chromatography (Prominence by Shimadzu Corp.). Detection was at 330 nm using a Shimadzu PDA SPD-M20A as the detector. The column used was a Shim-Pack ODS 150 mm*4.6 mm (Shimadzu Corp.). Elution was performed using solution A (0.1% TFA aqueous solution) and solution B (aqueous 90% acetonitrile solution containing 0.1% TFA). The elution was with a 20-minute linear concentration gradient from a 9:1 mixture to a 8:2 mixture, a 15-minute linear concentration gradient from a 8:2 mixture to a 2:8 mixture and a 5-minute linear concentration gradient from a 2:8 mixture to a 0:10 mixture, followed by elution with a 0:10 mixture for 1 minute. The flow rate was 0.6 ml/min. As a control, the same experiment was carried out using a crude protein solution extract from E. coli in which pET15b vector without the insert had been introduced.
When enzyme reaction was conducted using an anthocyanin (delphinidin 3-glycoside, petunidin 3-glycoside or delphinidin 3,5-diglycoside) as the substrate, the enzyme reaction conditions were 30° C., 15 minutes, and an aqueous 90% acetonitrile solution containing 0.1% TFA and 0.24 N hydrochloric acid was used as the stop buffer. A Shimadzu PDA SPD-M20A detector was used for detection at 520 nm during analysis of the enzyme reaction solution by high-performance liquid chromatography (Prominence (Shimadzu Corp.)). The column used was a Shodex RSpak DE-413 L (Shodex). Elution was performed using solution A (0.1% TFA aqueous solution) and solution B (aqueous 90% acetonitrile solution containing 0.1% TFA). Elution was performed with a 15-minute linear concentration gradient from an 8:2 mixture to a 0:10 mixture, and subsequent elution for 5 minutes with a 0:10 mixture. […]

The nature of data set [3]: Simulation of flavone C-glycoside (isovitexin) copigment effect with anthocyanin, absorption spectra. The format is physicochemical. The following applies: for Absorption maximum of anthocyanin solution with addition of flavone C-glycoside (λmax): pH 4.5, anthocyanin 0.5 mM. The protocol:
An anthocyanin and flavone C-glycoside were prepared to simulate the copigment effect of flavone C-glycoside on anthocyanin. The malvin (malvidin 3,5-diglycoside) and isovitexin (apigenin 6-C-glycoside) used for the experiment were purchased from Funakoshi Corp.
The flavone C-glycoside (isovitexin) was added to the anthocyanin (malvin) at 0, 2 and 4-equivalent molar concentrations in a buffering solution at pH 4.5, and the absorption spectra were measured. The anthocyanin concentration was 0.5 mM.
Addition of the flavone C-glycoside increased the absorbance of the anthocyanin solution, shifting the absorption maximum (λmax) toward the long wavelength end with increasing addition of flavone C-glycoside.

Consider `O=c1cc(-c2ccc(O)c(O)c2)oc2cc(O)c([C@@H]3O[C@H](CO)[C@@H](O)[C@H](O)[C@H]3O)c(O)c12` [Isoorientin, luteolin 6-C-glycoside], for which the “Absorption maximum of malvin solution with addition of flavone C-glycoside (λmax)” value in data set [1] is 575 nm. For the same molecule, in data set [2], the “Enzyme reaction synthesis product” value is “Swertiajaponin” and the “peak detected in the enzyme reaction solution” value (from here on “peak detected”) was “a peak was detected for swertiajaponin”.
For the molecule `O=c1cc(-c2ccc(O)cc2)oc2cc(O)cc(O)c12` [Apigenin], in data set [2], the “peak detected” value is recorded as “no peak was detected in the enzyme reaction solution other than for the substrate”.
For Apigenin 4′-glycoside, the “peak detected” value in data set [2] is given as “no peak was detected in the enzyme reaction solution other than for the substrate”.
Same read-out and setting: as for Petunidin 3-glycoside, the entry is “no peak was detected in the enzyme reaction solution other than for the substrate”; as for isovitexin 4′-glycoside [Saponarin], “no peak was detected in the enzyme reaction solution other than for the substrate”.
Same read-out and setting: as for Delphinidin 3-glycoside, the entry is “no peak was detected in the enzyme reaction solution other than for the substrate”; as for `O=c1cc(-c2ccc(O)c(O)c2)oc2cc(O)cc(O)c12` [Luteolin], “no peak was detected in the enzyme reaction solution other than for the substrate”.
Still for that read-out and setting: the entry for Luteolin 4′-glycoside is “no peak was detected in the enzyme reaction solution other than for the substrate”.
For `COc1cc2oc(-c3ccc(O)cc3)cc(=O)c2c(O)c1[C@@H]1O[C@H](CO)[C@@H](O)[C@H](O)[C@H]1O` [Swertisin, apigenin 7-methyl-6-C-glycoside], the “copigment effect with malvin” value in data set [1] (compared with isoorientin, 10 equivalents, pH 5.0) is reported as “higher copigment effect with malvin”. In data set [1], the “Absorption maximum of malvin solution with addition of flavone C-glycoside (λmax)” value was 579 nm.
For `COc1cc(-c2[o+]c3cc(O)cc(O[C@@H]4O[C@H](CO)[C@@H](O)[C@H](O)[C@H]4O)c3cc2O[C@@H]2O[C@H](CO)[C@@H](O)[C@H](O)[C@H]2O)cc(OC)c1O` [Malvin, malvidin 3,5-diglycoside], the “Absorption maximum of malvin solution (λmax)” value in data set [1] (malvin alone, pH 5.0, 0.5 mM) is listed as 529 nm. Also, the “Absorption maximum of anthocyanin solution with addition of flavone C-glycoside (λmax)” value in data set [3] (0 equivalent isovitexin) is 531.8 nm; in data set [3] (2 equivalents isovitexin), 566.4 nm; in data set [3] (4 equivalents isovitexin), 573.0 nm.
In the case of `O=c1cc(-c2ccc(O)cc2)oc2cc(O)c([C@@H]3O[C@H](CO)[C@@H](O)[C@H](O)[C@H]3O)c(O)c12` [Isovitexin, apigenin 6-C-glycoside], in data set [2], the “Enzyme reaction synthesis product” value is listed as “Swertisin” and the “peak detected” value is listed as “a peak for swertisin”. For the same molecule, the “copigment effect with malvin” value in data set [3] (pH 4.5, malvin 0.5 mM) is listed as “copigment effect of isovitexin is exhibited with malvin”.
For Delphinidin 3,5-diglycoside, in data set [2], the “peak detected” value is given as “no peak was detected in the enzyme reaction solution other than for the substrate”.

B1: DN134067: oboushibana-derived flavone 7-O-methyltransferase (SEQ ID NO: 34/35), expressed in E. coli (protein)
chain: MEAQEDNAYMQALELQTGIDMNMTLRAAIELGILETIVGAGEGAKLAAGEISGHLPTANPEAPNMVDRMLRLLAAHNIVTCVVEGGVDGRPECKYGAAPVSKYFTGEGEMSLARKVLLATDMVTFQSWLHLKDSVINGGNAFHTAFNMSLFDKNKVDSRFNNVFNTSMKSVSLFAINKFINTYDGFSDIQVLVDVGGGIGTALYAITSKFPHIKGINFDLPQVISTAQTSYPEMEHVSGDMFASVPKGDAILLKHVLHNWEDESCLKILKTCWNSLPYKGKVIIVESVLPKAPGVSSASKYFTCLDVIMMAHFGAKLRTIEEFKELCNNAGFSSFNATYFHTYHCIMEFTK
modifications: Commelina communis var. hortensis
B1: the methyl group-transfer activity entry in data set [2] (substrate comparison) is listed as “most powerful methyl group-transfer activity for isovitexin”.
